Test results: paper PMC10657444, “Design and evaluation of tadpole-like conformational antimicrobial peptides” (Communications Biology, 2023)
Values after ≈ are worked out from the molar mass of the structure shown. Residues, ends and D or L forms follow the SMILES beside them.

Legend:
MRSA 3393 = format: cell-based, Staphylococcus aureus; settings: 3393
Source text: (§1) Bacteria were cultivated in Luria-Bertani (LB) broth.

MRSA ATCC 43300 = format: cell-based, Staphylococcus aureus; settings: ATCC 43300
Source text: as §1

MRSA USA 300 = format: cell-based, Staphylococcus aureus
Source text: as §1

MRSA = format: cell-based, Staphylococcus aureus
Source text: as §1

E. coli ATCC 25922 = format: cell-based, Escherichia coli
Source text: as §1

E. coli S = format: cell-based, Escherichia coli
Source text: as §1

A. baumannii 1318 = format: cell-based, Acinetobacter baumannii
Source text: as §1

A. baumannii 1337 = format: cell-based, Acinetobacter baumannii
Source text: as §1

K. pneumoniae 3026 = format: cell-based, Klebsiella pneumoniae
Source text: as §1

[1] = system: K. pneumoniae ATCC 700603; format: cell-based, Klebsiella pneumoniae
Source text: as §1

MTT cytotoxicity assay = format: cell-based, human; settings: human
Description: (§2) To determine the cytotoxicity of the peptides, we used the MTT (3-(4,5)-dimethylthiahiazo (-z-y1)-3,5-di-phenytetrazoliumromide) dye reduction assay against HEK293T cells. In brief, the 100 μL of cells in 96-well plate were incubated for 24 h at 37 °C, 5% CO2, and then peptide solutions (concentrations ranging from 100 to 0.39 μM) were added and further incubated for 72 h. MTT solution (5 mg/mL) was added and further incubated for 4 h. After incubation, the precipitated MTT formazan crystal was dissolved by addition of dimethyl sulfoxide (DMSO). […]

HEK293T cells = assay: MTT cytotoxicity assay; format: cell-based, human
Description: as §2

sheep red blood cells = assay: Hemolysis assay; settings: red cells of sheep, 1 h
Description: To evaluate the hemolysis effects of peptides, red blood hemolysis was performed as described with minimum modifications. Sterile defibrated sheep blood was purchased from Guangzhou Hongquan Biotechnology Co., LTD. Blood cells were adjusted to 2 × 10^9 cells/mL in phosphate-buffered saline (PBS, pH 7.4). In total, 98 μL sheep red blood cell suspension was incubated with 2 μL of peptides at different concentrations ranging from 3.13 to 100 µM. After incubation for 1 h at 37 °C, the cells were centrifuged and the absorbance of the supernatant was measured at 450 nm. The value for “zero hemolysis” was determined using sterile PBS, while 100% hemolysis was established using 1.5% (v/v) Triton X-100. Hemolysis of testing sample was calculated as the percentage of Triton X-100-induced hemolysis.

Acinetobacter baumannii = format: cell-based
Source text: as §1

[2] = HEK293T cells, OD450, cytotoxicity (Fig 2a), replicates

## CC[C@H](C)[C@H](NC(=O)[C@H](CCCNC(=N)N)NC(=O)[C@H](CCCNC(=N)N)NC(=O)[C@H](CC(C)C)NC(=O)[C@@H](N)Cc1ccccc1)C(=O)N[C@@H](Cc1ccccc1)C(=O)N[C@@H](Cc1ccccc1)C(=O)N[C@@H](Cc1ccccc1)C(=O)N[C@@H](Cc1ccccc1)C(N)=O [HT1] (H-FLRRIFFFF-NH2)
MRSA 3393
  MIC Gram+ MRSA 3393: 6.25 µM (≈ 8.07 µg/mL)
MRSA ATCC 43300
  MIC Gram+ MRSA ATCC 43300: 3.13 µM (≈ 4.04 µg/mL)
MRSA USA 300
  MIC Gram+ MRSA USA 300: 6.25 µM (≈ 8.07 µg/mL)
MRSA
  MICs against MRSA: 3.13 to 6.25 µM
E. coli ATCC 25922
  MIC Gram- E. coli ATCC 25922: 25 µM (≈ 32.3 µg/mL)
E. coli S
  MIC Gram- E. coli S: 12.5 µM (≈ 16.1 µg/mL)
A. baumannii 1318
  MIC Gram- A. b 1318: 25 µM (≈ 32.3 µg/mL)
A. baumannii 1337
  MIC Gram- A. b 1337: 25 µM (≈ 32.3 µg/mL)
K. pneumoniae 3026
  MIC Gram- K. p 3026: > 100 µM
[1]
  MIC Gram- K. p ATCC 700603: > 100 µM
MTT cytotoxicity assay
  IC50 at 72 h: 2.7 µM
MTT cytotoxicity assay; [2]
  viability at 72 h, 0.39 µM: 93.6%
  viability at 72 h, 0.78 µM: 87.3%
  viability at 72 h, 1.57 µM: 78%
  viability at 72 h, 3.13 µM: 30.5%
  viability at 72 h, 12.5 µM: 0.557%
  viability at 72 h, 25 µM: 1.3%
HEK293T cells
  toxicity / cytotoxicity against HEK293T cells (in words): high toxicity
Sheep red blood cells
  HC10 (concentration inducing 10% hemolysis): 25.0 µM
Acinetobacter baumannii
  MIC against Gram-negative Acinetobacter baumannii: 25 µM (≈ 32.3 µg/mL)
